In ChEMBL document CHEMBL4325847, “Dihydropyrazothiazole derivatives as potential MMP-2/MMP-8 inhibitors for cancer therapy” (Bioorg Med Chem Lett, 2018):

What was measured:
[1] = target: 72 kDa type IV collagenase (Homo sapiens, UniProt P08253); assay: Inhibition of recombinant human MMP-2 preincubated for 10 mins followed by Mca-PLGL-Dpa-AR-NH2 substrate addition and measured for 5 mins by fluorescence assay
[2] = tested on: L02; assay: Cytotoxicity against human LO2 cells by MTT assay; format: cell-based
[3] = tested on: HEK-293T; assay: Cytotoxicity against human 293T cells by MTT assay; format: cell-based
[4] = tested on: HeLa; assay: Antiproliferative activity against human HeLa cells after 48 hrs by MTT assay; format: functional, cell-based
[5] = tested on: MCF7; assay: Antiproliferative activity against human MCF7 cells after 48 hrs by MTT assay; format: functional, cell-based; conditions: MCF7, 48 h
[6] = tested on: HepG2; assay: Antiproliferative activity against human HepG2 cells after 48 hrs by MTT assay; format: functional, cell-based; conditions: HepG2, 48 h
[7] = target: Neutrophil collagenase (Homo sapiens, UniProt P22894); assay: Inhibition of recombinant human MMP-8 using Mca-PLGL-Dpa-AR-NH2 as substrate preincubated for 10 mins followed by substrate addition and measured for 5 mins by fluorescence assay
[8] = tested on: MCF7; assay: Induction of apoptosis in human MCF7 cells assessed as necrotic cells at 32 uM after 48 hrs by Annexin V-FITC/propidium iodide staining-based flow cytometric analysis (reference value: 0.343%); format: functional
[9] = tested on: MCF7; assay: Induction of apoptosis in human MCF7 cells assessed as early apoptotic cells at 2 uM after 48 hrs by Annexin V-FITC/propidium iodide staining-based flow cytometric analysis (reference value: 2.54%); format: functional
[10] = tested on: MCF7; assay: Induction of apoptosis in human MCF7 cells assessed as necrotic cells at 8 uM after 48 hrs by Annexin V-FITC/propidium iodide staining-based flow cytometric analysis (reference value: 0.343%); format: functional
[11] = tested on: MCF7; assay: Induction of apoptosis in human MCF7 cells assessed as live cells at 8 uM after 48 hrs by Annexin V-FITC/propidium iodide staining-based flow cytometric analysis (reference value: 91.8%); format: functional
[12] = tested on: MCF7; assay: Induction of apoptosis in human MCF7 cells assessed as live cells at 2 uM after 48 hrs by Annexin V-FITC/propidium iodide staining-based flow cytometric analysis (reference value: 91.8%); format: functional
[13] = tested on: MCF7; assay: Induction of apoptosis in human MCF7 cells assessed as late apoptotic cells at 32 uM after 48 hrs by Annexin V-FITC/propidium iodide staining-based flow cytometric analysis (reference value: 5.33%); format: functional
[14] = tested on: MCF7; assay: Induction of apoptosis in human MCF7 cells assessed as live cells at 32 uM after 48 hrs by Annexin V-FITC/propidium iodide staining-based flow cytometric analysis (reference value: 91.8%); format: functional
[15] = tested on: MCF7; assay: Induction of apoptosis in human MCF7 cells assessed as early apoptotic cells at 8 uM after 48 hrs by Annexin V-FITC/propidium iodide staining-based flow cytometric analysis (reference value: 2.54%); format: functional
[16] = tested on: MCF7; assay: Induction of apoptosis in human MCF7 cells assessed as late apoptotic cells at 2 uM after 48 hrs by Annexin V-FITC/propidium iodide staining-based flow cytometric analysis (reference value: 5.33%); format: functional
[17] = tested on: MCF7; assay: Induction of apoptosis in human MCF7 cells after 48 hrs by Annexin V-FITC/propidium iodide staining-based flow cytometric analysis; format: functional, cell-based
[18] = tested on: MCF7; assay: Induction of apoptosis in human MCF7 cells assessed as late apoptotic cells at 8 uM after 48 hrs by Annexin V-FITC/propidium iodide staining-based flow cytometric analysis (reference value: 5.33%); format: functional
[19] = tested on: MCF7; assay: Induction of apoptosis in human MCF7 cells assessed as early apoptotic cells at 32 uM after 48 hrs by Annexin V-FITC/propidium iodide staining-based flow cytometric analysis (reference value: 2.54%); format: functional
[20] = tested on: MCF7; assay: Induction of apoptosis in human MCF7 cells assessed as necrotic cells at 2 uM after 48 hrs by Annexin V-FITC/propidium iodide staining-based flow cytometric analysis (reference value: 0.343%); format: functional

Chain of Neutrophil collagenase (P22894 whole entry): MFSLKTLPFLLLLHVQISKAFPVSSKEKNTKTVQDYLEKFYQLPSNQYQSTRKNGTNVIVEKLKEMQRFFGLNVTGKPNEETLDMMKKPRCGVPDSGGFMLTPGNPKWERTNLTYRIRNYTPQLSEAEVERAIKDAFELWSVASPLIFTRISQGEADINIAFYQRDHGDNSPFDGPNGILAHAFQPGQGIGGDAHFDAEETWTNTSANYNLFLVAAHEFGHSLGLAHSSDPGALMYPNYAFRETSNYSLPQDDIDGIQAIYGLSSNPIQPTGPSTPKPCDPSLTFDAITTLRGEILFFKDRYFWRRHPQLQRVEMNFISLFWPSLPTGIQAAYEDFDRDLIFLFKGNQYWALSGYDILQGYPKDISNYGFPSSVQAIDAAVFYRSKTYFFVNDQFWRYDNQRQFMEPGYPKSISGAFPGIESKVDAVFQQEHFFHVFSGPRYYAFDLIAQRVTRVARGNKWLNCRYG
Chain of 72 kDa type IV collagenase (P08253 whole entry): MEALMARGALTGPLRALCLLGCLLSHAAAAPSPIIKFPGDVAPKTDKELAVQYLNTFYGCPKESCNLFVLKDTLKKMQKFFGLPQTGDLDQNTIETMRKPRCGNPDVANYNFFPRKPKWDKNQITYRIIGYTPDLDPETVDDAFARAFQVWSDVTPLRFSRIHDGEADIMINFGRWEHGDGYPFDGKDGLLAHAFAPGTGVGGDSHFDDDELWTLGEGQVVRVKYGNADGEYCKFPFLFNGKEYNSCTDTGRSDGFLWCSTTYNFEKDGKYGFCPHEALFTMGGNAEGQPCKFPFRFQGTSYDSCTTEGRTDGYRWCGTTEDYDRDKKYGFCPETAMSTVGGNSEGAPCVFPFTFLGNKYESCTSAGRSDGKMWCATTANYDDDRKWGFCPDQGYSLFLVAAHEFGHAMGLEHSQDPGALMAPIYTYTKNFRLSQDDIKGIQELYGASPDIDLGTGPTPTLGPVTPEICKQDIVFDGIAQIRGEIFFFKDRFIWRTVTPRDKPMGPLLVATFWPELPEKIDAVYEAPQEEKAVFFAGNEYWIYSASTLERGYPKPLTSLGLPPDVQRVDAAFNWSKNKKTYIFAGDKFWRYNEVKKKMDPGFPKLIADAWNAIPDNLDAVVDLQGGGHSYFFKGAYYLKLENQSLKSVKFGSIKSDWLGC

Row | SMILES | IC50 ([1]; read-out: IC50) [µM] | CC50 [2] [µM] | CC50 [3] [µM] | IC50 [4] [µM] | IC50 [5] [µM] | IC50 [6] [µM] | IC50 [7] [µM] | also measured
1 | Oc1ccccc1C1CC(c2ccccc2)=NN1c1nc(-c2ccc(C(F)(F)F)cc2)cs1 (configuration not stated) | 48.2 | 42.8 | 25.4 | 2.25 | 3.5 | 8.85 | > 100 | –
2 | Oc1ccccc1C1CC(c2ccccc2)=NN1c1nc(-c2ccc(Br)cc2)cs1 (configuration not stated) | 34.8 | 65.2 | 52.8 | 4.88 | 2.14 | 17.6 | 75.6 | –
3 | C[C@@]1(O)c2cccc(O)c2C(=O)C2=C(O)[C@]3(O)C(=O)C(C(N)=O)=C(O)C[C@@H]3C[C@@H]21 | 1.29 | – | – | – | – | – | 21.9 | –
4 | Oc1ccccc1C1CC(c2ccc(F)cc2)=NN1c1nc(-c2ccccc2)cs1 (configuration not stated) | 9.65 | 85.6 | 50.7 | 13.1 | 3.24 | 25 | 39.7 | –
5 | COc1ccc(C2=NN(c3nc(-c4ccccc4)cs3)C(c3ccccc3O)C2)cc1 (configuration not stated) | 12.9 | 75.2 | 64.1 | 18.2 | 2.39 | 23.3 | 30.5 | –
6 | COc1ccc(C2=NN(c3nc(-c4ccc(Br)cc4)cs3)C(c3ccccc3O)C2)cc1 (configuration not stated) | 16.9 | > 100 | 71.9 | 28.1 | 20.1 | 9.52 | 36.8 | –
7 | Cc1ccc(-c2cc(C(F)(F)F)nn2-c2ccc(S(N)(=O)=O)cc2)cc1 [CELECOXIB] | – | 78.2 | 55.8 | – | 6.96 | 0.78 | – | –
8 | COc1ccc(-c2csc(N3N=C(c4ccc(F)cc4)CC3c3ccccc3O)n2)cc1 (configuration not stated) | 10.8 | 85.6 | 59.4 | 17 | 4.56 | 18.2 | 28.2 | –
9 | COc1ccc(-c2csc(N3N=C(c4ccccc4)CC3c3ccccc3O)n2)cc1 (configuration not stated) | 11.2 | 72.4 | 57.1 | 8.64 | 1.03 | 11.9 | 48.9 | Activity [8]: 0.198%; Activity [9]: 4.44%; Activity [10]: 0.207%; Activity [11]: 53.7%; Activity [12]: 73%; Activity [13]: 60.9%; Activity [14]: 36.6%; Activity [15]: 2.57%; Activity [16]: 22.4%; Activity [17]: Dose-dependent effect; Activity [18]: 43.6%; Activity [19]: 2.29%; Activity [20]: 0.216%
10 | Oc1ccccc1C1CC(c2ccccc2)=NN1c1nc(-c2cccc(Br)c2)cs1 (configuration not stated) | 28.3 | 42.3 | 41.8 | 5.51 | 1.07 | 21.7 | 86.5 | –
11 | Oc1ccccc1C1CC(c2ccc(F)cc2)=NN1c1nc(-c2ccc(Br)cc2)cs1 (configuration not stated) | 12.3 | 48.2 | 52 | 2.7 | 1.47 | 15 | 48.8 | –
12 | Oc1ccccc1C1CC(c2ccc(F)cc2)=NN1c1nc(-c2ccc(C(F)(F)F)cc2)cs1 (configuration not stated) | 58.4 | 66.1 | 34.8 | 11.7 | 2.89 | 10.5 | 100 | –
13 | COc1cccc(-c2csc(N3N=C(c4ccc(F)cc4)CC3c3ccccc3O)n2)c1 (configuration not stated) | 6.7 | 43.8 | 39.1 | 9.73 | 4.01 | 17.8 | 36.4 | –
14 | COc1ccc(C2=NN(c3nc(-c4cccc(Br)c4)cs3)C(c3ccccc3O)C2)cc1 (configuration not stated) | 14 | 68.7 | 24.5 | 13 | 4.42 | 7.55 | 48.1 | –
15 | COc1ccc(C2=NN(c3nc(-c4cccc(OC)c4)cs3)C(c3ccccc3O)C2)cc1 (configuration not stated) | 2.8 | 56.2 | 35.2 | 13.7 | 3.72 | 12.6 | 25.6 | –
16 | COc1ccc(C2=NN(c3nc(-c4ccc(OC)cc4)cs3)C(c3ccccc3O)C2)cc1 (configuration not stated) | 11.7 | 49.7 | 63 | 16.3 | 3.17 | 15.3 | 65.2 | –
17 | COc1ccc(C2=NN(c3nc(-c4ccc(C(F)(F)F)cc4)cs3)C(c3ccccc3O)C2)cc1 (configuration not stated) | 58.8 | 45.6 | 45.4 | 29.3 | 11.1 | 12 | > 100 | IC50 ([1]; read-out: pIC50 (converted)): 57.5 µM
18 | Oc1ccccc1C1CC(c2ccc(F)cc2)=NN1c1nc(-c2cccc(Br)c2)cs1 (configuration not stated) | 16.2 | 59.4 | 70.1 | 10.8 | 8.01 | 18.4 | 60.1 | –
19 | Oc1ccccc1C1CC(c2ccccc2)=NN1c1nc(-c2ccccc2)cs1 (configuration not stated) | 21.6 | 88.3 | 55.1 | 5.05 | 2.08 | 9.9 | 62.5 | IC50 ([1]; read-out: pIC50 (converted)): 21.4 µM
20 | COc1cccc(-c2csc(N3N=C(c4ccccc4)CC3c3ccccc3O)n2)c1 (configuration not stated) | 8.31 | 57.9 | 46.6 | 2.73 | 5.3 | 10.9 | 35.8 | –
